Earlier results, collected in patent US7943663B2, “Process and an apparatus for producing episesamin-rich compositions” (Suntory Holdings Limited, priority 2005, dated 2011).

Tests used:
fatty acid synthases = settings: rats, separately administered orally; sesamin versus episesamin
[1] = rat, po
[2] = system: β-oxidation enzymes in the liver; settings: rats, separately administered orally; compared with sesamin

c1cc2c(cc1[C@H]1OC[C@H]3[C@@H]1CO[C@H]3c1ccc3c(c1)OCO3)OCO2 [Episesamin, episesamin]
activity for inhibiting fatty acid synthases (fatty acid synthases): no difference
transfer into organs (in vivo distribution) [1]: at least twice as much as that of sesamin
gene expression and enzymatic activity of β-oxidation enzymes in the liver [2]: markedly increased

c1cc2c(cc1[C@H]1OC[C@H]3[C@@H]1CO[C@@H]3c1ccc3c(c1)OCO3)OCO2 [Sesamin, sesamin]
activity for inhibiting fatty acid synthases (fatty acid synthases): no difference
